In PubChem BioAssay AID248 (DTP/NCI, 2004):
Inconclusive results and toxic doses are left out. Rule as the data show it: active = T/C of 150% or more; inactive = T/C below 125%.

Tested on: L1210 leukemia ip in BDF1 mice, survival T/C
Assay: NCI In Vivo Anticancer Drug Screen. Data for tumor model L1210 Leukemia (intraperitoneal) in B6D2F1 (BDF1) mice
Settings: endpoint: mean survival time, higher = longer survival
How it was run: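 In this screen, tumor-bearing mice given compound are compared to those given vehicle, and their survival values are reported as a treated-to-control quotient.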

[1] = dose: 100.0 mg/kg/injection, schedule: Q01DX001 (ip), vehicle: saline
[2] = dose: 200.0 mg/kg/injection, schedule: Q01DX001 (ip), vehicle: saline
[3] = dose: 400.0 mg/kg/injection, schedule: Q01DX001 (ip), vehicle: saline
[4] = dose: 100.0 mg/kg/injection, schedule: Q04DX003 (ip), vehicle: saline with Tween-80
[5] = dose: 200.0 mg/kg/injection, schedule: Q04DX003 (ip), vehicle: saline with Tween-80
[6] = dose: 400.0 mg/kg/injection, schedule: Q04DX003 (ip), vehicle: saline with Tween-80
[7] = dose: 100.0 mg/kg/injection, schedule: Q01DX009 (ip), vehicle: saline
[8] = dose: 100.0 mg/kg/injection, schedule: Q04DX003 (ip), vehicle: saline
[9] = dose: 200.0 mg/kg/injection, schedule: Q01DX009 (ip), vehicle: saline
[10] = dose: 200.0 mg/kg/injection, schedule: Q04DX003 (ip), vehicle: saline
[11] = dose: 400.0 mg/kg/injection, schedule: Q01DX009 (ip), vehicle: saline
[12] = dose: 400.0 mg/kg/injection, schedule: Q04DX003 (ip), vehicle: saline
[13] = dose: 12.5 mg/kg/injection, schedule: Q01DX009 (ip), vehicle: saline with Tween-80
[14] = dose: 25.0 mg/kg/injection, schedule: Q01DX009 (ip), vehicle: saline with Tween-80
[15] = dose: 50.0 mg/kg/injection, schedule: Q01DX009 (ip), vehicle: saline with Tween-80
[16] = dose: 5.0 mg/kg/injection, schedule: Q01DX001 (ip), vehicle: saline
[17] = dose: 10.0 mg/kg/injection, schedule: Q01DX001 (ip), vehicle: saline
[18] = dose: 20.0 mg/kg/injection, schedule: Q01DX001 (ip), vehicle: saline
[19] = dose: 100.0 mg/kg/injection, schedule: Q01DX009 (ip), vehicle: saline with Tween-80
[20] = dose: 200.0 mg/kg/injection, schedule: Q01DX009 (ip), vehicle: saline with Tween-80
[21] = dose: 100.0 mg/kg/injection, schedule: Q04DX002 (ip), vehicle: Klucel (hydroxypropylcellulose) (HPC)
[22] = dose: 200.0 mg/kg/injection, schedule: Q04DX002 (ip), vehicle: Klucel (hydroxypropylcellulose) (HPC)
[23] = dose: 400.0 mg/kg/injection, schedule: Q04DX002 (ip), vehicle: Klucel (hydroxypropylcellulose) (HPC)

Measured: T/C

C[C@@H]1C[C@@]2(C)[C@@H](CC[C@@H]3[C@@H]2CC[C@]2(C)OC(=O)CC[C@@H]32)CC1=O
inactive: dose: 50.0 mg/kg/injection, schedule: Q01DX009 (ip), vehicle: Klucel (hydroxypropylcellulose) (HPC) 95 % of control | dose: 100.0 mg/kg/injection, schedule: Q01DX009 (ip), vehicle: Klucel (hydroxypropylcellulose) (HPC) 97 % of control | dose: 100.0 mg/kg/injection, schedule: Q04DX003 (ip), vehicle: other 98 % of control | dose: 200.0 mg/kg/injection, schedule: Q01DX009 (ip), vehicle: Klucel (hydroxypropylcellulose) (HPC) 100 % of control | dose: 200.0 mg/kg/injection, schedule: Q04DX003 (ip), vehicle: other 101 % of control

CCOCCOC(=O)c1ccc(C(N)=NC)cc1
inactive: [1] 91 % of control | [2] 94 % of control | [3] 94 % of control

C/C=C/C(=O)Nc1cccc(OC(=O)NC(C)C)c1
inactive: [4] 95 % of control | [5] 93 % of control | [6] 87 % of control

COC(=O)CCC(C)C1CCC2C3CCC4CC(OC(C)=O)CCC4(C)C3CCC12C (stereo not given)
inactive: dose: 100.0 mg/kg/injection, schedule: Q01DX001 (ip), vehicle: saline with Tween-80 95 % of control | dose: 200.0 mg/kg/injection, schedule: Q01DX001 (ip), vehicle: saline with Tween-80 95 % of control | dose: 400.0 mg/kg/injection, schedule: Q01DX001 (ip), vehicle: saline with Tween-80 89 % of control

Cc1cccc2nc3nc(Cl)c(Cl)nc3n12
inactive: dose: 75.0 mg/kg/injection, schedule: Q01DX001 (ip), vehicle: acetone 98 % of control | dose: 150.0 mg/kg/injection, schedule: Q01DX001 (ip), vehicle: acetone 101 % of control | dose: 300.0 mg/kg/injection, schedule: Q01DX001 (ip), vehicle: acetone 92 % of control

NC(=O)NCCNC(N)=O
inactive: [7] 108 % of control | [8] 97 % of control | [9] 110 % of control | [10] 105 % of control | [11] 108 % of control | [12] 103 % of control

Cc1ccc(C(=O)CCl)c(C)c1
inactive: [13] 95 % of control | [14] 100 % of control | [15] 103 % of control

Cc1cc(C)c(NC2=NCCS2)cc1C
inactive: dose: 100.0 mg/kg/injection, schedule: Q04DX002 (ip), vehicle: saline with Tween-80 100 % of control

O=C1C=CC(=O)N1CO (tested in a mixture with another compound)
inactive: [4] 97 % of control | [5] 92 % of control | [6] 91 % of control

COc1ccccc1/C=C1\SC(=O)N(CCNC(C)=O)C1=O
inactive: [1] 98 % of control | [2] 100 % of control | [3] 96 % of control

CCSP(=S)(SCC)SCC
inactive: dose: 75.0 mg/kg/injection, schedule: Q04DX003 (ip), vehicle: Klucel (hydroxypropylcellulose) (HPC) 94 % of control | dose: 150.0 mg/kg/injection, schedule: Q04DX003 (ip), vehicle: Klucel (hydroxypropylcellulose) (HPC) 92 % of control | dose: 300.0 mg/kg/injection, schedule: Q04DX003 (ip), vehicle: Klucel (hydroxypropylcellulose) (HPC) 120 % of control

ClC(Cl)(Cl)C1OCCCO1
inactive: [1] 97 % of control | [2] 107 % of control | [3] 103 % of control

CCOc1ccc(-n2cnc3ccccc3c2=O)cc1CN(CCCl)CCCl
inactive: dose: 100.0 mg/kg/injection, schedule: Q01DX001 (ip), vehicle: Klucel (hydroxypropylcellulose) (HPC) 100 % of control | dose: 200.0 mg/kg/injection, schedule: Q01DX001 (ip), vehicle: Klucel (hydroxypropylcellulose) (HPC) 102 % of control | dose: 400.0 mg/kg/injection, schedule: Q01DX001 (ip), vehicle: Klucel (hydroxypropylcellulose) (HPC) 100 % of control

Cc1cnc(NCCCC(N)C(=O)O)nc1 (stereo not given)
inactive: dose: 100.0 mg/kg/injection, schedule: Q04DX002 (ip), vehicle: saline 95 % of control | dose: 200.0 mg/kg/injection, schedule: Q04DX002 (ip), vehicle: saline 95 % of control

Nc1sc(C(=O)O)cc1[N+](=O)[O-]
inactive: dose: 200.0 mg/kg/injection, schedule: Q01DX001 (ip), vehicle: carboxymethylcellulose (CMC) 92 % of control | dose: 400.0 mg/kg/injection, schedule: Q01DX001 (ip), vehicle: carboxymethylcellulose (CMC) 92 % of control

COC(F)(F)C(Cl)Cl
inactive: [1] 95 % of control | [2] 101 % of control | [3] 95 % of control

CCCCN(CCCC)C(=O)CCC
inactive: [8] 102 % of control | [10] 95 % of control

Cc1c(CCO)sc[n+]1Cc1ccccc1[N+](=O)[O-]
inactive: [16] 102 % of control | [17] 100 % of control | [18] 102 % of control | dose: 40.0 mg/kg/injection, schedule: Q01DX001 (ip), vehicle: saline 105 % of control | dose: 80.0 mg/kg/injection, schedule: Q01DX001 (ip), vehicle: saline 98 % of control | [1] 93 % of control

CCN(CC)C(=O)C1CCC(CCc2c[nH]c3ccccc23)NC1 (stereo not given)
inactive: [1] 94 % of control

CCC[N+](CCC)(CCC)Cc1ccccc1
inactive: [16] 108 % of control | [17] 98 % of control | [18] 96 % of control

CC(=O)[O][Sn]([CH3])([CH3])[CH3]
inactive: dose: 0.18 mg/kg/injection, schedule: Q01DX009 (ip), vehicle: Klucel (hydroxypropylcellulose) (HPC) 93 % of control | dose: 0.37 mg/kg/injection, schedule: Q01DX009 (ip), vehicle: Klucel (hydroxypropylcellulose) (HPC) 96 % of control | dose: 0.75 mg/kg/injection, schedule: Q01DX009 (ip), vehicle: Klucel (hydroxypropylcellulose) (HPC) 104 % of control

c1cc[c]([Ge]([O][Ge]([c]2ccccc2)([c]2ccccc2)[c]2ccccc2)([c]2ccccc2)[c]2ccccc2)cc1
inactive: [15] 94 % of control | [19] 96 % of control | [20] 96 % of control

Oc1cccc(-c2cc3c(O)ccc(O)c3[nH]2)c1
inactive: [21] 86 % of control | [22] 99 % of control | [23] 91 % of control

C=CCCC[P+](c1ccccc1)(c1ccccc1)c1ccccc1
inactive: dose: 3.13 mg/kg/injection, schedule: Q01DX009 (ip), vehicle: saline 95 % of control | dose: 6.25 mg/kg/injection, schedule: Q01DX009 (ip), vehicle: saline 103 % of control | [13] 108 % of control | dose: 12.5 mg/kg/injection, schedule: Q01DX009 (ip), vehicle: saline 100 % of control | [14] 108 % of control | dose: 50.0 mg/kg/injection, schedule: Q01DX009 (ip), vehicle: saline 101 % of control

CC(C)CCOC(=O)C(O)C(C)(Cl)c1ccccc1 (stereo not given)
inactive: [21] 111 % of control | [22] 91 % of control | [23] 100 % of control

Clc1nc2nc(C3CC3)[nH]c2nc1Cl
inactive: [19] 104 % of control | [4] 97 % of control | [20] 90 % of control | [5] 95 % of control | dose: 400.0 mg/kg/injection, schedule: Q01DX009 (ip), vehicle: saline with Tween-80 111 % of control | [6] 101 % of control

O=C1CS/C(=N/N=C/c2ccccc2)N1
inactive: [15] 104 % of control | [19] 91 % of control | [20] 95 % of control

O=C1OC2C(I)C3CCC2C1C3 (stereo not given)
inactive: [7] 98 % of control | [8] 102 % of control | [9] 102 % of control | [10] 105 % of control | [11] 98 % of control | [12] 98 % of control

COc1cc(CC2COCC2Cc2ccc3c(c2)OCO3)cc(OC)c1OC (stereo not given)
inactive: dose: 25.0 mg/kg/injection, schedule: Q01DX009 (ip), vehicle: acetone 110 % of control | dose: 50.0 mg/kg/injection, schedule: Q01DX009 (ip), vehicle: acetone 101 % of control | dose: 100.0 mg/kg/injection, schedule: Q01DX009 (ip), vehicle: acetone 103 % of control

CN(C)c1ccc(/C=C/c2ccc3ccccc3n2)c(F)c1
inactive: dose: 100.0 mg/kg/injection, schedule: Q04DX003 (ip), vehicle: Klucel (hydroxypropylcellulose) (HPC) 100 % of control | dose: 200.0 mg/kg/injection, schedule: Q04DX003 (ip), vehicle: Klucel (hydroxypropylcellulose) (HPC) 98 % of control | dose: 400.0 mg/kg/injection, schedule: Q04DX003 (ip), vehicle: Klucel (hydroxypropylcellulose) (HPC) 93 % of control
